Reference: PubChem BioAssay AID2060897 (Molecular Pharmacology Branch, DTP, NCI, 2025)
pIC50: −log10 of the molar value.

Tested on: 966289-007-R4-J1-PDC complex spheroid viability
Experiment: Anticancer human tumor 966289-007-R4-J1-PDC patient-derived pancreatic adenocarcinoma cell line growth inhibition [RAS]
Details: for pIC50: curve of first compound; for viability, T/C: stronger effect = lower value
Procedure, shortened: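 Multi-cell-type spheroids: tumor cells plus HUVEC endothelial cells and mesenchymal stem cells. RAS-pathway inhibitors were combined with targeted agents, each dosed in half-log steps down from clinical Cmax, or from 10 microM when Cmax was unknown.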
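Further: spheroids exposed to agents for one week before readout.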
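Wherever viability, T/C is given: percent viability relative to DMSO vehicle control wells as 100%.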

CC1(O)CCCC1n1c(=O)c(C(F)F)cc2cnc(NC3CCN(S(C)(=O)=O)CC3)nc21 (centres undefined) + C=CC(=O)N1CCN(c2nc(OCC3CCCN3C)nc3c(F)c(-c4nc(N)cc(C)c4C(F)(F)F)c(Cl)cc23)C(C)C1
pIC50 (second compound 0.00316 µM): 6.88 | pIC50 (second compound 0.01 µM): 6.82 | pIC50 (second compound 0.0316 µM): 6.77 | pIC50 (second compound 0.1 µM): 6.81 | pIC50 (second compound 0.316 µM): 6.81 | pIC50 (second compound 1 µM): 6.90 | viability, T/C (second compound 0.00316 µM, first compound 0.0316 µM): 130% | viability, T/C (second compound 0.00316 µM, first compound 0.1 µM): 56.8% | viability, T/C (second compound 0.00316 µM, first compound 0.316 µM): 25% | viability, T/C (second compound 0.00316 µM, first compound 1 µM): 27% | viability, T/C (second compound 0.00316 µM, first compound 3.16 µM): 29.8% | viability, T/C (second compound 0.00316 µM, first compound 10 µM): 3.73% | viability, T/C (second compound 0.01 µM, first compound 0.0316 µM): 138% | viability, T/C (second compound 0.01 µM, first compound 0.1 µM): 66.5% | viability, T/C (second compound 0.01 µM, first compound 0.316 µM): 21.4% | viability, T/C (second compound 0.01 µM, first compound 1 µM): 28.2% | viability, T/C (second compound 0.01 µM, first compound 3.16 µM): 26.4% | viability, T/C (second compound 0.01 µM, first compound 10 µM): 3.99% | viability, T/C (second compound 0.0316 µM, first compound 0.0316 µM): 129% | viability, T/C (second compound 0.0316 µM, first compound 0.1 µM): 66.3% | viability, T/C (second compound 0.0316 µM, first compound 0.316 µM): 26.9% | viability, T/C (second compound 0.0316 µM, first compound 1 µM): 24.9% | viability, T/C (second compound 0.0316 µM, first compound 3.16 µM): 26.2% | viability, T/C (second compound 0.0316 µM, first compound 10 µM): 3.83% | viability, T/C (second compound 0.1 µM, first compound 0.0316 µM): 121% | viability, T/C (second compound 0.1 µM, first compound 0.1 µM): 60% | viability, T/C (second compound 0.1 µM, first compound 0.316 µM): 28.8% | viability, T/C (second compound 0.1 µM, first compound 1 µM): 27.8% | viability, T/C (second compound 0.1 µM, first compound 3.16 µM): 27.9% | viability, T/C (second compound 0.1 µM, first compound 10 µM): 3.1% | viability, T/C (second compound 0.316 µM, first compound 0.0316 µM): 117% | viability, T/C (second compound 0.316 µM, first compound 0.1 µM): 61.9% | viability, T/C (second compound 0.316 µM, first compound 0.316 µM): 25.1% | viability, T/C (second compound 0.316 µM, first compound 1 µM): 27.7% | viability, T/C (second compound 0.316 µM, first compound 3.16 µM): 23.1% | viability, T/C (second compound 0.316 µM, first compound 10 µM): 3.69% | viability, T/C (second compound 1 µM, first compound 0.0316 µM): 123% | viability, T/C (second compound 1 µM, first compound 0.1 µM): 56.8% | viability, T/C (second compound 1 µM, first compound 0.316 µM): 21.2% | viability, T/C (second compound 1 µM, first compound 1 µM): 24% | viability, T/C (second compound 1 µM, first compound 3.16 µM): 22.8% | viability, T/C (second compound 1 µM, first compound 10 µM): 3.51%

O=C(c1ccc(F)c(F)c1Nc1ccc(I)cc1F)N1CC(O)([C@@H]2CCCCN2)C1 + CCn1c(-c2cc(N3CCN(C)CC3)cnc2C(C)OC)c2c3cc(ccc31)-c1csc(n1)CC(NC(=O)C1CC1C)C(=O)N1CCCC(N1)C(=O)OCC(C)(C)C2
pIC50 (second compound 0.000949 µM): 6.19 | pIC50 (second compound 0.003 µM): 6.22 | pIC50 (second compound 0.00949 µM): 6.64 | pIC50 (second compound 0.03 µM): 6.91 | pIC50 (second compound 0.0949 µM): 7.34 | pIC50 (second compound 0.3 µM): 7.49 | viability, T/C (second compound 0.000949 µM, first compound 0.00316 µM): 101% | viability, T/C (second compound 0.000949 µM, first compound 0.01 µM): 89.9% | viability, T/C (second compound 0.000949 µM, first compound 0.0316 µM): 106% | viability, T/C (second compound 0.000949 µM, first compound 0.1 µM): 77.7% | viability, T/C (second compound 0.000949 µM, first compound 0.316 µM): 74.2% | viability, T/C (second compound 0.000949 µM, first compound 1 µM): 36.2% | viability, T/C (second compound 0.003 µM, first compound 0.00316 µM): 92% | viability, T/C (second compound 0.003 µM, first compound 0.01 µM): 90.8% | viability, T/C (second compound 0.003 µM, first compound 0.0316 µM): 94.7% | viability, T/C (second compound 0.003 µM, first compound 0.1 µM): 74.5% | viability, T/C (second compound 0.003 µM, first compound 0.316 µM): 75.5% | viability, T/C (second compound 0.003 µM, first compound 1 µM): 32.2% | viability, T/C (second compound 0.00949 µM, first compound 0.00316 µM): 83.8% | viability, T/C (second compound 0.00949 µM, first compound 0.01 µM): 96.2% | viability, T/C (second compound 0.00949 µM, first compound 0.0316 µM): 87.8% | viability, T/C (second compound 0.00949 µM, first compound 0.1 µM): 82.5% | viability, T/C (second compound 0.00949 µM, first compound 0.316 µM): 37% | viability, T/C (second compound 0.00949 µM, first compound 1 µM): 22.6% | viability, T/C (second compound 0.03 µM, first compound 0.00316 µM): 87.3% | viability, T/C (second compound 0.03 µM, first compound 0.01 µM): 79.3% | viability, T/C (second compound 0.03 µM, first compound 0.0316 µM): 76.2% | viability, T/C (second compound 0.03 µM, first compound 0.1 µM): 54.2% | viability, T/C (second compound 0.03 µM, first compound 0.316 µM): 29.9% | viability, T/C (second compound 0.03 µM, first compound 1 µM): 15.5% | viability, T/C (second compound 0.0949 µM, first compound 0.00316 µM): 97.5% | viability, T/C (second compound 0.0949 µM, first compound 0.01 µM): 93% | viability, T/C (second compound 0.0949 µM, first compound 0.0316 µM): 52.5% | viability, T/C (second compound 0.0949 µM, first compound 0.1 µM): 34.6% | viability, T/C (second compound 0.0949 µM, first compound 0.316 µM): 21.1% | viability, T/C (second compound 0.0949 µM, first compound 1 µM): 11% | viability, T/C (second compound 0.3 µM, first compound 0.00316 µM): 93.1% | viability, T/C (second compound 0.3 µM, first compound 0.01 µM): 76.5% | viability, T/C (second compound 0.3 µM, first compound 0.0316 µM): 52% | viability, T/C (second compound 0.3 µM, first compound 0.1 µM): 23.7% | viability, T/C (second compound 0.3 µM, first compound 0.316 µM): 19.7% | viability, T/C (second compound 0.3 µM, first compound 1 µM): 10.4%
